From publication PMC12980401 (Science translational medicine, 2025)

Legend:
chow-fed rats [1] = assay: Counterregulatory response to hindbrain glucoprivation; type: in vivo, rat
chow-fed rats [2] = type: in vivo, rat
HFD-fed rats = type: in vivo, rat
[3] = tested on: chow-fed and HFD-fed rats; assay: Oral glucose tolerance test; type: in vivo, rat; details: for Glucose-stimulated plasma insulin: OGTT
musk shrew = assay: Food intake, body weight and emesis in musk shrews; type: in vivo, Suncus murinus; details: intraperitoneal 5 mg/kg; for Food intake in musk shrews: n = 9
Half-life in rat serum = type: in vitro ADME
rats = assay: Kaolin intake; details: fourth ICV 20 μg
chow-fed rats [4] = assay: Telemetry of core body temperature, physical activity and heart rate; details: lateral ventricle, high dose ODN (100 μg), TDN 20 and 100 μg
[5] = tested on: chow-fed and HFD-fed rats; assay: Insulin tolerance test; type: in vivo, rat; details: fourth ICV TDN 200 μg/2 μl
lean and DIO mice = assay: Food intake and body weight after intraperitoneal injection in mice; type: in vivo, mouse
DIO mice = assay: Hyperinsulinemic-euglycemic clamp in DIO mice; type: in vivo, mouse; details: single intraperitoneal 5 mg/kg before insulin infusion, vehicle 18%
[6] = HFD-fed rats, lateral ventricle 200 μg/2 μl
[7] = HFD-fed rats, fourth ICV TDN 200 μg/2 μl

Molecule: O=C[C@H](O)[C@@H](O)[C@H](O)[C@H](S)CO [5-TG, 5-thio-D-glucose]
- Food intake after glucoprivic agent (chow-fed rats [1]; lean rats, fourth ICV 210 μg at dark cycle onset, versus vehicle): increased food intake at 1 and 24 hours after injection

Molecule: octadecaneuropeptide [ODN]
- 24-hour body weight change (chow-fed rats [2]; lean chow-fed rats, fourth ICV ODN 0.2, 2 and 20 μg): without affecting 24-hour body weight
- Time to consume the first bout of food (latency) (chow-fed rats [2]; lean chow-fed rats, fourth ICV, 2 μg): delayed
- Size of the first meal (chow-fed rats [2]; lean chow-fed rats, fourth ICV, 20 μg): reduced
- 24-hour food intake and body weight (HFD-fed rats; HFD-maintained rats, fourth ICV, 20 μg): decreasing 24-hour food intake and body weight
- Meal duration 6 to 12 hours postinjection (HFD-fed rats; HFD-maintained rats, fourth ICV, highest dose (20 μg)): decreased meal duration
- Plasma glucagon after intraperitoneal insulin (chow-fed rats [1]; fourth ICV ODN 20 μg 15 min before ip insulin 0.75 U/kg, chow-fed rats): lowered plasma glucagon concentrations 30 min after intraperitoneal insulin
- 5-TG-induced hyperglycemia (1-hour blood glucose) (chow-fed rats [1]; lean rats, fourth ICV ODN 20 μg pretreatment before 5-TG 210 μg): blunted 5-TG–induced hyperglycemia 1 hour after injection
- 5-TG-mediated hyperphagia (chow-fed rats [1]; lean rats, fourth ICV ODN 20 μg/2 μl pretreatment before 5-TG 210 μg): suppressed 5-TG–mediated hyperphagia at the 4-hour time point
- Circulating free fatty acids after 5-TG (chow-fed rats [1]; plasma 30 min, fourth ICV ODN 20 μg before 5-TG): suppressed by hindbrain ODN pretreatment
- Glucose tolerance (OGTT) ([3]; DIO rats, fourth ICV 200 μg): markedly improved
- OGTT area under the curve ([3]; lean rats, fourth ICV 200 μg (higher dose)): reduced the overall area under the curve
- Glucose-stimulated plasma insulin ([3]; lean rats, fourth ICV 200 μg): without enhancing glucose-stimulated plasma insulin
- 24-hour body weight change in musk shrews (musk shrew): without affecting body weight at 24 hours
- Emetic episodes in musk shrews (musk shrew): caused no emetic episodes
- Food intake in musk shrews (musk shrew): suppressed food intake at 6 and 24 hours after injection
- Half-life in rat serum (Half-life in rat serum; rat serum, average half-life (fig. S6, I and J)): 12.4 min
- Kaolin intake (rats): did not cause kaolin intake
- Telemetry variables at individual hours (chow-fed rats [4]): decreased locomotor activity at hour 8

Molecule: tridecaneuropeptide [TDN]
- 24-hour body weight (HFD-fed rats; [6]): without an impact on body weight
- 24-hour food intake (HFD) (HFD-fed rats; [6]): suppressed 24-hour food intake
- OGTT AUC [3, 7]: lowered the OGTT AUC
- Glucose-stimulated plasma insulin [3, 7]: without heightening glucose-stimulated plasma insulin concentrations
- Insulin sensitivity during insulin tolerance test [5]: improved by fourth ICV TDN
- 24-hour body weight change in musk shrews (musk shrew): without altering 24-hour weight change
- Food intake in musk shrews (musk shrew): suppressed 24-hour food intake
- Half-life in rat serum (Half-life in rat serum; rat, serum): 21.2 min
- Body weight loss over 9 days (lean and DIO mice; DIO mice, daily intraperitoneal 5 mg/kg for 9 days): 4.7%
- Daily HFD intake (lean and DIO mice; DIO mice, daily intraperitoneal 5 mg/kg for 9 days, n = 6): suppressed HFD intake immediately on day 1
- 24-hour food intake and body weight (lean and DIO mice; lean mice, peripheral administration 5 mg/kg): no effect in lean mice
- Suppression of endogenous glucose appearance (Ra) relative to baseline (DIO mice): 57%

B1: recombinant DBI protein: recombinant diazepam binding inhibitor protein, parent of ODN (protein, UniProt P07108 2-87, looked up)
Acyl-CoA-binding protein: SQAEFEKAAEEVRHLKTKPSDEEMLFIYGHYKQATVGDINTERPGMLDFTGKAKWDAWNELKGTSKEDAMKAYINKVEELKKKYGI
- Chow intake (chow-fed rats [2]; chow-maintained rats, fourth ICV 2 μg/2 μl): suppressed chow intake at 6 and 12 hours postinjection
- HFD intake (HFD-fed rats; HFD-maintained rats, fourth ICV 2 μg/2 μl): without affecting HFD intake
